Reference: patent US20050192279A1, “Pyridazinones as antagonists of alpha4 integrins” (priority 2004, published 2005)

What was measured:
TNBS induced colitis [1] = assay: Trinitrobenzenesulfonic acid (TNBS) Induced Colitis, mice; format: in vivo, Balb/c female mice; details: mouse
Excerpt: In Vivo Model: Trinitrobenzenesulfonic acid (TNBS) Induced Colitis
The TNBS model of experimental colitis (Bobin-Dubigeon, C., Collin, X., Grimaud, N., Robert, J-M., Guillaume Le Baut, G., and Petit, J-Y. Effects of tumour necrosis factor-a synthesis inhibitors on rat trinitrobenzene sulphonic acid-induced chronic colitis. Eur. J. Pharmacology, 431: 103-110, 2001), is characterized by shrinkage of the colon, intraperitoneal serosal adhesions, severe wounding and inflammatory damage, diarrhea, a continuous pattern of mucosal epithelial damage in the distal colon with infiltration of inflammatory cells. These symptomatic signs in the above—mentioned models are similar to what occur in human colitis.
Male Wistar rats (200-250 g) are inoculated with 500 microliters of a solution of 10 to 20 mg of TNBS in 30% ethanol delivered intracolonically via catheter or ball-tipped gavage needle to the 8th cm from the anus. When Balb/c female mice (8-12 weeks of age) were used, the inoculation volume was 50 microliters containing 2-3 mg of TNBS in 30% ethanol delivered intracolonically via catheter or ball-tipped gavage needle to the 4th cm from the anus. During the ensuing 7 days, test animals were administered a preparation of an experimental compound. This material may be administered orally, subcutaenously or intraperitoneally, once or twice daily. […] Among the parameters analyzed were the length of the colon starting from the anus to the top of the cecum, the weight of the colon, the consistency of any stools found within the colon, the presence or absence of intraperitoneal adhesions on the serosal surfacr of the intestin, and the gross macroscopic appearance of the colon. The latter is scored for length and severity of inlfammatory damage using a 10 point score. […]
Histological analyses of tissues consisted of staining paraffin-embedded tissue sections with hematoxylin-eosin dye. Epithelial damage scores were determined as the fraction of the tissue section showing damaged epithelium. Scores were determined as follows: 0=no damage; 1=<⅓ damaged, 2=⅓ to <⅔ damaged, 3=>⅔ damaged. […]

TNBS induced colitis [2] = assay: Trinitrobenzenesulfonic acid (TNBS) Induced Colitis, rats; format: in vivo, Male Wistar rats; details: rat
Excerpt: In Vivo Model: Trinitrobenzenesulfonic acid (TNBS) Induced Colitis The TNBS model of experimental colitis (Bobin-Dubigeon, C., Collin, X., Grimaud, N., Robert, J-M., Guillaume Le Baut, G., and Petit, J-Y. Effects of tumour necrosis factor-a synthesis inhibitors on rat trinitrobenzene sulphonic acid-induced chronic colitis. Eur. J. […] These symptomatic signs in the above—mentioned models are similar to what occur in human colitis. Male Wistar rats (200-250 g) are inoculated with 500 microliters of a solution of 10 to 20 mg of TNBS in 30% ethanol delivered intracolonically via catheter or ball-tipped gavage needle to the 8th cm from the anus. When Balb/c female mice (8-12 weeks of age) were used, the inoculation volume was 50 microliters containing 2-3 mg of TNBS in 30% ethanol delivered intracolonically via catheter or ball-tipped gavage needle to the 4th cm from the anus. During the ensuing 7 days, test animals were administered a preparation of an experimental compound. This material may be administered orally, subcutaenously or intraperitoneally, once or twice daily. At the end of this period, the animals were euthanized and their colons were collected for further analysis. Among the parameters analyzed were the length of the colon starting from the anus to the top of the cecum, the weight of the colon, the consistency of any stools found within the colon, the presence or absence of intraperitoneal adhesions on the serosal surfacr of the intestin, and the gross macroscopic appearance of the colon. […] In rats, the distal colon between the 5th and the 8th centimeter is dissected and placed in 10% neutral buffered formalin for later histological analysis. In mice, the 1st to the 4th cm was collected for histological analyses. For the following parameters—colon length, colon weight, stool consistency and appearance and macroscopic damage—a scoring system was used to describe the changes. The four scores for each animal were added to provide a Total Score. […] For the presence of blood in stool, one point was added to scores <3. […] Histological analyses of tissues consisted of staining paraffin-embedded tissue sections with hematoxylin-eosin dye. Epithelial damage scores were determined as the fraction of the tissue section showing damaged epithelium. […] Statistic analyses for these experiments performed with Graphpad Prism 4.0, using ANOVA, with Dunnets or Bonferroni's multiple comparisons test.

COc1cnn(C)c(=O)c1-c1ccc(C[C@H](NC(=O)c2c(Cl)cccc2Cl)C(=O)O)cc1 [Cpd 17]
% Inhibition of Total Macroscopic Score (TNBS induced colitis [1]; 10 mg/kg sc bid): 21.30%
% Inhibition of Total Macroscopic Score (TNBS induced colitis [1]; 30 mg/kg sc bid): 25.5%
% Inhibition of Total Macroscopic Score (TNBS induced colitis [1]; 60 mg/kg sc bid): −17%
% Inhibition of Epithelial Damage Score (TNBS induced colitis [2]; 10 mg/kg sc bid): −5.822%
% Inhibition of Total Macroscopic Score (TNBS induced colitis [2]; 10 mg/kg sc bid): −1.638%
% Inhibition of Epithelial Damage Score (TNBS induced colitis [2]; 30 mg/kg sc bid): 8.5%
% Inhibition of Total Macroscopic Score (TNBS induced colitis [2]; 30 mg/kg sc bid): −4.117%
